According to the CheMixHub viscosity set:
Where “and” joins values, the source holds several entries; their conditions need not be identical. Equal entries are not always repeated.

Experiments:
[1] = xn = mol fraction of the nth substance listed

CC(C)CCCC(C)CCCC(C)CCCCC(C)CCCC(C)CCCC(C)C (stereo not given) + CCCCCCCCO
Conditions | viscosity [mPa·s]
[1], 298.15 K, 101 kPa, x2 = 0.5974 | 13.55

CC(O)C(C)O (stereo not given) + O=C1CCCN1
Conditions | viscosity [mPa·s]
[1], 308.15 K, 101 kPa, x2 = 0.5898 | 14.65

Cc1ccc(C)cc1 + C1CCOC1
[1], 303.15 K, 101.33 kPa
Conditions | viscosity [mPa·s]
x2 = 0.1057 | 0.564
x2 = 0.2037 | 0.557
x2 = 0.2809 | 0.552
x2 = 0.4052 | 0.544
x2 = 0.5256 | 0.53
x2 = 0.6045 | 0.518
x2 = 0.7062 | 0.501
x2 = 0.8021 | 0.485
x2 = 0.9001 | 0.462

NCCO.O=CO
viscosity
Conditions | 293.15 K | 298.15 K | 303.15 K | 308.15 K | 313.15 K | 318.15 K | 323.15 K
100 kPa | – | 79.13 mPa·s and 79.13 mPa·s | 63.01 mPa·s and 63.01 mPa·s | 51.79 mPa·s and 51.79 mPa·s | 43.03 mPa·s and 43.03 mPa·s | 36.34 mPa·s and 36.34 mPa·s | 30.76 mPa·s and 30.76 mPa·s
101 kPa | 268.9 mPa·s | 198.1 mPa·s | 149.5 mPa·s | 115.4 mPa·s | 91 mPa·s | 72.85 mPa·s | 58.64 mPa·s

CCCC[N+](CCCC)(CCCC)CCCC.[Cl-] + C[C@@H](O)[C@H](N)C(=O)O
Conditions | viscosity [mPa·s]
[1], 313.15 K, 101 kPa, x1 = 0.9 | 633

CC(O)C(C)O (stereo not given) + CN(C)C=O
[1], 308.15 K, 101 kPa
Conditions | viscosity [mPa·s]
x1 = 0.0509 | 0.724
x1 = 0.1003 | 0.859
x1 = 0.1898 | 1.033
x1 = 0.2855 | 1.36
x1 = 0.3729 | 1.788
x1 = 0.4785 | 2.544
x1 = 0.5949 | 5.332
x1 = 0.6808 | 8.504
x1 = 0.7219 | 10.79
x1 = 0.8883 | 24.97
x1 = 0.942 | 34.78

CCCCCCCCCCCCOS(=O)(=O)[O-].CCCCn1cc[n+](C)c1
Conditions | viscosity [mPa·s]
303.15 K, 101 kPa | 1.32e+07

C[N+](C)(C)CCO.[Cl-] + O
Conditions | viscosity [mPa·s]
[1], 298.15 K, 101.33 kPa, x1 = 0.002 | 0.9099

C[N+](C)(C)CCO.[Cl-] + CN(CCO)CCO
viscosity [mPa·s], [1], 101 kPa
Conditions | x1 = 0.091 | x1 = 0.111 | x1 = 0.143
293.15 K | 54.54 | 126.3 | 139.8
313.15 K | 20.45 | 40.89 | 46.55

OCCOCCO + CC(C)=O
[1], 298.1 K, 101 kPa
Conditions | viscosity [mPa·s]
x1 = 0.2 | 0.682
x1 = 0.4 | 1.669
x1 = 0.5 | 2.655
x1 = 0.6 | 4.301
x1 = 0.8 | 11.1

CCCCCCCCCCCCO + CCCCCCCCCCO
viscosity [mPa·s], [1], 101.8 kPa
Conditions | x2 = 0.1151 | x2 = 0.3347 | x2 = 0.5407 | x2 = 0.7346 | x2 = 0.9162
298.15 K | 16.35 | 15.13 | 14.02 | 13.03 | 12.15
308.15 K | 11.08 | 10.31 | 9.627 | 8.957 | 8.384
318.15 K | 7.752 | 7.245 | 6.775 | 6.357 | 5.973

O=Cc1ccccc1 + O=[N+]([O-])c1ccccc1
[1], 303.15 K, 101 kPa
Conditions | viscosity [mPa·s]
x1 = 0.3043 | 1.495
x1 = 0.6049 | 1.405
x1 = 0.9018 | 1.295

Cc1ccc(C)cc1 + C1CCCCC1
[1], 101 kPa
Conditions | viscosity [mPa·s]
303 K, x1 = 0.1025 | 0.7341
303 K, x1 = 0.2016 | 0.6783
303 K, x1 = 0.2982 | 0.6363
303 K, x1 = 0.402 | 0.6131
303 K, x1 = 0.4944 | 0.5946
303 K, x1 = 0.5992 | 0.5858
303 K, x1 = 0.7997 | 0.5735
303 K, x1 = 0.8951 | 0.5721
303.15 K, x2 = 0.1016 | 0.5673
303.15 K, x2 = 0.1997 | 0.572
303.15 K, x2 = 0.2851 | 0.5782
303.15 K, x2 = 0.3934 | 0.591
303.15 K, x2 = 0.4966 | 0.611
303.15 K, x2 = 0.5961 | 0.6362
303.15 K, x2 = 0.6976 | 0.6682
303.15 K, x2 = 0.7954 | 0.7086
303.15 K, x2 = 0.8986 | 0.763
313 K, x1 = 0.1025 | 0.6343
313 K, x1 = 0.2016 | 0.5965
313 K, x1 = 0.2982 | 0.5693
313 K, x1 = 0.402 | 0.5417
313 K, x1 = 0.4944 | 0.5288
313 K, x1 = 0.5992 | 0.5165
313 K, x1 = 0.6952 | 0.5142
313 K, x1 = 0.7997 | 0.5159
323 K, x1 = 0.1025 | 0.54
323 K, x1 = 0.2016 | 0.5237
323 K, x1 = 0.2982 | 0.4976
323 K, x1 = 0.402 | 0.4831
323 K, x1 = 0.4944 | 0.4765
323 K, x1 = 0.6952 | 0.462
323 K, x1 = 0.7997 | 0.4612
323 K, x1 = 0.8951 | 0.4608

CC(C)CCCC(C)CCCC(C)CCCC(C)C (stereo not given) + CCCCCCCCCCCCCCCC
[1], 298.15 K, 101.33 kPa
Conditions | viscosity [mPa·s]
x2 = 0.0966 | 5.129
x2 = 0.1996 | 4.843
x2 = 0.2995 | 4.565
x2 = 0.3995 | 4.303
x2 = 0.4994 | 4.063
x2 = 0.5995 | 3.839
x2 = 0.6995 | 3.631
x2 = 0.8001 | 3.438
x2 = 0.85 | 3.332

CC(O)C(C)O (stereo not given)
viscosity [mPa·s]
Conditions | 308.15 K | 313.15 K | 318.15 K | 323.15 K
101 kPa | – | – | – | 16.98
101.3 kPa | 57.11 | 39.26 | 27.62 | –

[Cl-].[Cl-].[Cl-].[Cl-].[Ge+4] + CCOCC
[1], 293.15 K, 101 kPa
Conditions | viscosity [mPa·s]
x2 = 0.2064 | 0.5
x2 = 0.4027 | 0.415
x2 = 0.5137 | 0.376
x2 = 0.6832 | 0.309
x2 = 0.7964 | 0.279

c1ccc(Nc2ccccc2)cc1 + Oc1ccccc1
viscosity [mPa·s], [1], 101 kPa
Conditions | 303.15 K | 313.15 K | 323.1 K
x1 = 0.21 | – | – | 3.825
x1 = 0.444 | – | – | 4.362
x1 = 0.683 | – | – | 5.01
x2 = 0.133 | 12.57 | 7.95 | –
x2 = 0.2435 | 11.65 | 7.43 | –
x2 = 0.3531 | 10.72 | 6.93 | –
x2 = 0.4454 | 10.03 | 6.52 | –
x2 = 0.5306 | 9.47 | 6.2 | –
x2 = 0.6104 | 8.98 | 5.91 | –
x2 = 0.6735 | 8.61 | 5.68 | –
x2 = 0.7266 | 8.28 | 5.51 | –
x2 = 0.7989 | 7.91 | 5.28 | –
x2 = 0.8548 | 7.65 | 5.13 | –
x2 = 0.908 | 7.42 | 4.98 | –
x2 = 0.9541 | 7.255 | 4.845 | –
